In article PMC5295762, “Verticillin A Inhibits Leiomyosarcoma and Malignant Peripheral Nerve Sheath Tumor Growth via Induction of Apoptosis” (Clinical & experimental pharmacology, 2016):

Assays:
ST88 cells = assay: MTS cell viability analysis, ST88; format: cell-based, human; details: 24 h
Method: (§1) MTS analysis was performed using CellTiter96 Aqueous Non-Radioactive Cell Proliferation Assay kit (Promega, Madison, WI, USA) as specified by the manufacturer. Cells were seeded at a density of 5,000 cells per well, and allowed to adhere overnight. Cellular viability was assessed 24 h after treatment with DMSO (control), or 10, 50, or 100 nM verticillin A, and absorbance was measured at 490 nm wavelength.
(§2) In vitro analyses were performed in triplicate. Mean ± SEM (standard error mean) calculations and statistical analyses were performed for all cell-based assays, and EC50 values were computed using GraphPad Prism version 6.00 (for Windows, GraphPad Software, La Jolla California USA, www.graphpad.com). All Student t tests performed were unpaired and two-sided. The average tumor volume (mm^3) and weight ([…]) for each study arm was measured and recorded. Mean ± SEM was calculated for each treatment group, and end-point analyses determined using unpaired two-sided t test was utilized to determine variances. *p ≤ 0.05; **p ≤ 0.01; ***p ≤ 0.001.

S462 cells [1] = assay: MTS cell viability analysis, S462; format: cell-based, human
Method: as §1, §2

MPNST and LMS cell lines [2] = assay: Cell cycle analysis (PI, FACS); format: cell-based; details: MPNST and LMS cells, 24 h treatment
Method: Cells were synchronized by 16 h starvation prior to treatment with DMSO, 10, 50, or 100 nM of verticillin A for 24 h. Attached and floating cells were collected following treatment and centrifuged for 5 min at 2500 RPM. Supernatant was removed and cells were washed twice with cold PBS. Cells were centrifuged (2500 RPM/5 min) and resuspended in 70% ethanol and fixed overnight at −20° C. Cells were then centrifuged at (2500 RPM/5 min), and ethanol was removed. Subsequently, cells were resuspended in 400 µL PI stain (0.05 mg/mL/ 1 mg/mL sodium citrate/ 50 µL Triton-X-100/ 50 µL RNase A, brought to 50 mL with PBS) and analyzed via LSR II FACS analysis.

HSC = assay: Cleaved caspase 3/7 activity, HSC; format: cell-based, human; details: 24 h
Method: (§3) Apoptosis was measured by quantifying cleaved-caspase 3 and cleaved-caspase 7 activity using Cell Event Caspase 3/7 Green Detection Reagent (Life Technologies, Carlsbad, CA, USA) in the Incucyte Zoom system (Essen BioScience, Ann Arbor, MI, USA). Cells were plated at a density of 4,200 cells per well and allowed to adhere. The cells were then treated with DMSO or 10, 50, or 100 nM verticillin A for 24 h, and caspase activity was monitored using fluorescent Cell Event Caspase 3/7 Reagent (5 µM final concentration). Endpoint analysis was performed in each well using a final concentration of 10 µM Vybrant DyeCycle Green Stain (Life Technologies, Carlsbad, CA, USA) in complete DMEM. Apoptosis was confirmed using the Apoptosis Detection Kit (BD Pharmagen, San Diego, CA, USA) in complete DMEM. Per supplier instructions, 1 × 10^6 cells/mL were stained with 5 µL Annexin V-FITC and 5 µL propidium iodide following 24 h treatment with DMSO or 10, 50, or 100 nM verticillin A and analyzed via FACS analysis (LSR II, BD Pharmagen, San Diego, CA, USA).

LMS1 cells [3] = assay: Annexin V/PI FACS analysis, LMS1; format: cell-based; details: LMS1, 24 h treatment, concentration not given
Method: as §3

SKLMS1 cells [4] = assay: Annexin V/PI FACS analysis, SKLMS1; format: cell-based; details: SKLMS1, 24 h treatment, concentration not given
Method: as §3

MPNST724 xenografts = assay: MPNST724 xenograft model; format: in vivo, SCID mice
Method: Six week old female SCID mice (Taconic Biosciences, Hudson, NY, USA; model ^#CB17SC) were injected subcutaneously with 1 × 10^6 MPNST724 cells into the flank. Once tumors reached 0.5 cm, mice were allocated into three arms (10 mice per arm) and treatment via intraperitoneal injections was initiated: Vehicle (5% ethanol/15% cremophor EL/80% PBS), verticillin A (0.25 mg/kg every other day), or verticillin A (0.5 mg/kg every other day). Mice were weighed and tumors were measured twice weekly. Mice were euthanized once tumors in the control group grew to ~1.5 cm. Final tumor volumes and weights were measured, and tumors were processed for IHC analysis.
Ki67 (Vector Laboratories) and cleaved caspase 3 (Cell Signaling) antibodies were used to identify the effect of verticillin A on proliferation and apoptosis, respectively. IHC staining was conducted at Nationwide Children’s Hospital (Columbus, OH) and analysis was performed at the Polaris Innovation Center (The Ohio State University, Columbus, OH, USA). IHC samples and analyses were verified by pathologist, O. Hans Iwenofu, M.D. (The Ohio State University, Department of Pathology, Columbus, OH, USA).
as §2

MPNST724 cells [5] = assay: Annexin V/PI FACS analysis, MPNST724; format: cell-based, human; details: MPNST724, 24 h treatment, concentration not given
Method: as §3

LMS1 cells [6] = assay: MTS cell viability analysis, LMS1; format: cell-based
Method: as §1, §2

S462 cells [7] = assay: Annexin V/PI FACS analysis, S462; format: cell-based, human; details: S462, 24 h treatment, concentration not given
Method: as §3

MPNST and LMS cell lines [8] = assay: Clonogenic analysis; format: cell-based; details: all doses, 24 h treatment then 10 days recovery
Method: Cells were seeded at 800 cells per well in a 6-well plate (9.5 cm^2) and allowed to attach overnight prior to treatment with DMSO or varying concentrations of verticillin A. Cells were treated for 24 h, then changed to recovery media and allowed to continue to grow for 10 days. Colonies were stained using 0.5% crystal violet solution in methanol for 30 min. Staining solution was removed, wells were washed with deionized H2O, and stained colonies were imaged and counted.

MPNST and LMS cell lines [9] = assay: Cleaved caspase 3/7 activity, MPNST and LMS cell lines; format: cell-based; details: all MPNST and LMS cell lines
Method: as §3

SKLMS1 cells [10] = assay: MTS cell viability analysis, SKLMS1; format: cell-based
Method: as §1, §2

SW620 colon cancer cells = test system: SW620 colon cancer cells; parameters: method as in PMID 21911457; details: cited from earlier work
[11] = test system: HepG2 liver carcinoma cells; parameters: method as in PMID 21911457; details: cited from earlier work
MPNST724 cells [12] = assay: MTS cell viability analysis, MPNST724; format: cell-based, human
Method: as §1, §2

[13] = test system: HSC (human Schwann cells); assay: MTS cell viability analysis, HSC; format: cell-based
Method: as §1, §2

HASMC = assay: Cleaved caspase 3/7 activity, HASMC; format: cell-based, human; details: 24 h
Method: as §3

[14] = test system: HASMC (human aortic smooth muscle cells); assay: MTS cell viability analysis, HASMC; format: cell-based
Method: as §1, §2

[15] = 0.5 mg/kg intraperitoneal every other day, day 11
[16] = MPNST724 xenograft tumors, 0.5 mg/kg
[17] = Homo sapiens, MTS, 24 h treatment

## CN1C(=O)C23SSC1(C)C(=O)N2C1Nc2ccccc2C1(C12c4ccccc4NC1N1C(=O)C4(C)SSC1(C(=O)N4C)C2O)C3O (stereo not shown) [verticillin A]
ST88 cells; ST88, 10 nM
  effect on cell viability: marked inhibitory effect
ST88 cells; ST88, 100 nM
  cellular growth reduction: 72.7%
S462 cells [1]; Homo sapiens, S462, MTS, 24 h treatment
  EC50: 26 nM
S462 cells [1]; S462, 10 nM, 24 h
  effect on cell viability: marked inhibitory effect
S462 cells [1]; S462, 100 nM, 24 h
  cellular growth reduction: 88.7%
MPNST and LMS cell lines [2]
  cell cycle arrest: No substantial arrest in cell cycle progression
HSC
  cleaved caspase 3/7 activity: 1.1 fold change
LMS1 cells [3]
  apoptosis (Annexin V/PI): 73.4 ± 12.7%
SKLMS1 cells [4]
  apoptosis (Annexin V/PI): 29.4 ± 2.3%
MPNST724 xenografts; 0.25 mg/kg intraperitoneal every other day, day 11
  tumor volume: 355.89 mm^3
MPNST724 xenografts; 0.5 mg/kg arm, 10 mice per arm
  verticillin A-induced mortality: 2 mice
MPNST724 xenografts; 0.5 mg/kg intraperitoneal every other day
  toxicity signs in mice: reduced grooming tendencies and mild weight loss
MPNST724 xenografts; [15]
  tumor volume: 160.92 mm^3
  tumor weight: 0.2 g
MPNST724 xenografts; [16]
  decrease in Ki67 proliferation marker expression (IHC): ~40%
  increase in cleaved caspase 3 expression (IHC): 5.5 fold
MPNST724 xenografts; lower dose (0.25 mg/kg)
  toxicity signs in mice: Minor signs of toxicity
MPNST724 cells [5]
  apoptosis (Annexin V/PI): 34 ± 4.3%
LMS1 cells [6]; LMS1, 10 nM, 24 h
  effect on cell viability: marked inhibitory effect
LMS1 cells [6]; LMS1, 100 nM, 24 h
  cellular growth reduction: 96.7%
LMS1 cells [6]; LMS1, MTS, 24 h treatment
  EC50: 10.7 nM
S462 cells [7]
  apoptosis (Annexin V/PI): 25.9 ± 3.75%
MPNST and LMS cell lines [8]
  colony formation capacity: unable to form colonies
MPNST and LMS cell lines [9]
  increase in cleaved caspase 3/7 activity: nearly two-fold increase
SKLMS1 cells [10]; Homo sapiens, SK-LMS-1, SKLMS1, MTS, 24 h treatment
  EC50: 74.6 nM
SKLMS1 cells [10]; SKLMS1, 10 nM, 24 h
  effect on cell viability: exhibited tolerance
SKLMS1 cells [10]; SKLMS1, 100 nM, 24 h
  cellular growth reduction: 57%
SW620 colon cancer cells
  cell cycle effect: induce G2 cell cycle arrest
[11]
  cell cycle effect: no changes in cell cycle progression
MPNST724 cells [12]; Homo sapiens, MPNST724, MTS, 24 h treatment
  EC50: 125 nM
MPNST724 cells [12]; MPNST724, 10 nM, 24 h
  effect on cell viability: exhibited tolerance
MPNST724 cells [12]; MPNST724, 100 nM, 24 h
  cellular growth reduction: 39.7%
[13]; [17]
  EC50: 64.9 nM
[13]; highest treatment dose
  toxicity to normal cells: toxicity was seen
HASMC
  cleaved caspase 3/7 activity: 1.2 fold change
[14]; 100 nM
  effect on cell viability: no effect
[14]; [17]
  EC50: 251 nM
